What was measured:
[1] = system: protein; details: cited from earlier work
[2] = both, human
Procedure: The skin was donated by male and female patients aged 28 to 63 years old undergoing abdominal plastic surgery at the Department for Plastic, Aesthetic, and Reconstructive Surgery of the Medical University Graz. […] The human skin explants were cleaned with gauze swabs and purified water and were subsequently stored frozen at −20° C.
The skin explants were thawed at room temperature for 12 h before the start of the study. They were fixed on a plate of extruded polystyrene wrapped in a medical underpad (MoliNea N, Paul Hartmann AG, Austria) and placed into a climate chamber (32° C./40-60% relative humidity) for 1 h before use. Ambient temperature and ambient relative humidity within the climate chamber were controlled throughout the experiment with a data logger with integrated temperature sensor and relative humidity sensor (175 H1 temperature and humidity data logger, Testo, Germany).
Cannulas (Sterican 20G, B.Braun, Germany) were inserted into the dermis and the subcutis of the skin explant. OFM probes (OFM-P0X-15, JR-HEALTH, Austria) were pushed through the cannulas. Afterwards, the cannulas were removed and the probes were fixed to the skin with cyanoacrylate (Cyanolit 241F, Panacol-Elosol GmbH, Germany). […]

[3] = Non-specific adsorption of diclofenac on the OFM probes and tubing; details: for the duration of the experiment (6 h); data not shown
Procedure: Two test solutions of diclofenac diethyl amine salt (DDEA) and diclofenac sodium salt (DNa) were tested. […] Samples were collected in 1 h intervals. Syringes and Eppendorf® vials were used to deliver test solution to the OFM outlet sections and tubing, respectively. Samples from the syringes and from the Eppendorf® vials were taken at the start (t=0 h) and at the end (t=6 h) of the experiment to determine the concentration entering the OFM probe and tubing. Syringes, dosing needles, Eppendorf® vials, and pipette tips were coated with each test solution prior to use. For coating, the samples were filled with test solutions and maintained at room temperature for 30 min. Afterwards, the coating test solutions were discarded. Pipette tips underwent three cycles of filling and emptying of test solutions. The fourth filling of the pipette tip was used as the sample. Adsorption was assessed by comparing inflow to outflow concentrations. […] LLOQ was 10 ng mL^-1.

O=C(O)Cc1ccccc1Nc1c(Cl)cccc1Cl [Diclofenac, diclofenac]
protein binding [1]: > 99.8% | dilution factor [2]: 13.9 fold

O=C(O)Cc1ccccc1Nc1c(Cl)cccc1Cl [DDEA, diclofenac diethylammonium]
stability in the stock solution [3]: stable

O=C(O)Cc1ccccc1Nc1c(Cl)cccc1Cl [DNa, diclofenac sodium]
concentration in recirculation probes higher than in control probes by ([2]; 28 h): 9 ng/mL

Reference: patent US20250198992A1, “IN VITRO METHODS” (HALEON CH SARL, priority 2022, published 2025)
